# Assay results reported in patent publication US20100240713A1, “AROMATIC AND HETEROAROMATIC COMPOUNDS USEFUL IN TREATING IRON DISORDERS” (XENON PHARMACEUTICALS INC., priority 2007, published 2010).
# pIC50: −log10 of the molar value. Where a name gives a salt, the structure may show the parent alone.
# Target: T1, DMT1 (Homo sapiens, UniProt P49281)
# T1 sequence (P49281 1-568): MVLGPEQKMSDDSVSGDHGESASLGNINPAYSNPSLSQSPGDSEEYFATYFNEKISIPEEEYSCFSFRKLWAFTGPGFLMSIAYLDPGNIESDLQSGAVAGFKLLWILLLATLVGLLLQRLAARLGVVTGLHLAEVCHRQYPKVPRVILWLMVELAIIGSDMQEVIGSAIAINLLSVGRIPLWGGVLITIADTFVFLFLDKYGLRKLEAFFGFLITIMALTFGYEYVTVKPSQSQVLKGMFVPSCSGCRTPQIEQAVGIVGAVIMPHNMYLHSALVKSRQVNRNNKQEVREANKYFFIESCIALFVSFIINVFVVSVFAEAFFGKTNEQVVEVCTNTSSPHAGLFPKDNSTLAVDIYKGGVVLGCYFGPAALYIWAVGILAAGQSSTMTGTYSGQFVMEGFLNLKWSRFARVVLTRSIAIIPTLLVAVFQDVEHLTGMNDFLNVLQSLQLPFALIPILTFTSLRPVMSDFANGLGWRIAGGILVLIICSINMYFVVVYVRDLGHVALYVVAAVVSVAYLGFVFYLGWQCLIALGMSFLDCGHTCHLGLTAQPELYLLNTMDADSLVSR
# Experiment: DMT1 activity assay (IC50 activity level, Table 1)
# Assay type: cell-based
# Settings: inhibition of DMT1
# Source text: This example discloses various in vitro assay for testing and profiling test agents against DMT1 stably expressed in cells of either an endogenous or recombinant origin. These assays can use stable cell lines overexpressing DMT1 or intestinal cells and intestinal tissue expressing endogenous DMT1. DMT1 function could also be assessed in other cell types that express DMT1. Of greatest relevance would be the erythrocytes (e.g. K562 cells) or hepatocytes (e.g. […]).
# DMT1 function can be assessed in a number of ways, including monitoring fluorescence changes of an iron fluorophore (e.g. calcein), monitoring uptake of radiolabelled iron (^55Fe or ^59Fe) (Picard et al., J. Biol. Chem., 2000, 275(46):35738-45 and Wetli et al., Chem. Biol. 2006 September; 13(9):965-72), or by assessing the current or transport of iron and other metals into the cells or tissues using standard electrophysiological techniques (Gunshin et al., Nature, 1997, 388(6641):482-8.).
# Variations of these assays involve alterations of incubation times, the iron status of the cells and tissues (which may be modulated by chemical chelators or by harvesting from iron deficient animals), the metal cation detected and the pH of the reaction can generally be made by conventional techniques known to those skilled in the art.
# The Example numbers provided in Table 1 correspond to the Examples herein: […]
row,pIC50,SMILES
1,≤ 6.00,"CNC(=N)SCc1c(C)cc(C)c(CSC(=N)NC)c1C.Cl [Example 7, 1,3-di[(methylamidino)thiomethyl]-2,4,6-trimethylbenzene 4-methylbenzenesulfonate hydrochloride]"
2,≤ 6.00,"N=C(N)Cc1cccc(CC(=N)N)c1 [Example 4, 2,2′-(1,3-phenylene)diacetimidamide]"
3,≤ 6.00,"CN/C(=N\C#N)NCc1c(C)cc(C)c(CN/C(=N/C#N)NC)c1C [Example 2, 1,3-di[(2-cyano-3-methylguanidino)methyl]-2,4,6-trimethylbenzene]"

# Tested on: not given
# Experiment: not given
# Settings: not given
row,melting point,SMILES
1,223 to 225 °C,"CNC(=N)SCc1c(C)cc(C)c(CSC(=N)NC)c1C.Cl [Example 7, 1,3-di[(methylamidino)thiomethyl]-2,4,6-trimethylbenzene 4-methylbenzenesulfonate hydrochloride]"
2,200 to 205 °C,"N=C(N)Cc1cccc(CC(=N)N)c1 [Example 4, 2,2′-(1,3-phenylene)diacetimidamide]"
3,270 to 273 °C,"Cc1c(CSC(=N)N)cc(CSC(=N)N)c(C)c1Br (as salt: hydrochloride) [Example 3.17, (5-bromo-4,6-dimethyl-1,3-phenylene)bis(methylene) dicarbamimidothioate dihydrochloride]"
4,215 to 218 °C,"N=C(N)SC(=O)c1sc(C(=O)SC(=N)N)c(Cl)c1Cl (as salt: hydrochloride) [Example 9, 2-(5-carbamimidoylsulfanecarbonyl-3,4-dichlorothiophene-2-carbonyl)isothiourea dihydrochloride]"
5,213 °C (dec.),"N=C(N)SCc1nnc(CSC(=N)N)n1N (as salt: hydrochloride) [Example 3.7, (4-amino-4H-1,2,4-triazole-3,5-diyl)bis(methylene)dicarbamimidothioate dihydrochloride]"
6,208 to 210 °C,"N=C(N)SCc1cccc(CSC(=N)N)n1 (as salt: hydrobromid) [Example 3.12, pyridine-2,6-diylbis(methylene)dicarbamimidothioate dihydrobromide]"
7,248 to 251 °C,"Cc1cc(C)c(CSC(=N)N)cc1CSC(=N)N (as salt: hydrochloride) [Example 3.16, (4,6-dimethyl-1,3-phenylene)bis(methylene)dicarbamimidothioate dihydrochloride]"
8,258 to 261 °C,"Cc1c(CSC(=N)N)cccc1CSC(=N)N (as salt: hydrobromid) [Example 3.21, (2-methyl-1,3-phenylene)bis(methylene)dicarbamimidothioate dihydrobromide]"
9,204 to 206 °C,"Cc1cc(C)c(C(C)SC(=N)N)c(C)c1C(C)SC(=N)N (stereo not drawn) (as salt: hydrobromid) [Example 6.1, 2-{1-[3-(1-carbamimidoylsulfanylethyl)-2,4,6-trimethylphenyl]ethyl}-isothiourea dihydrobromide]"
10,175 to 178 °C,"Cc1c(O)c(C)c(CSC(=N)N)c(C)c1CSC(=N)N (as salt: hydrochloride) [Example 3.19, (5-hydroxy-2,4,6-trimethyl-1,3-phenylene)bis(methylene) dicarbamimidothioate dihydrochloride]"
11,223 to 225 °C,"Cc1cc(CSC(=N)N)c(O)c(CSC(=N)N)c1 (as salt: hydrobromid) [Example 6.2, (2-hydroxy-5-methyl-1,3-phenylene)bis(methylene)dicarbamimidothioate dihydrobromide]"
12,240 to 241 °C,"Cc1cc(CSC(=N)N)cc(CSC(=N)N)c1 (as salt: hydrobromid) [Example 3.3, (5-methyl-1,3-phenylene)bis(methylene)dicarbamimidothioate dihydrobromide]"
13,270 to 272 °C,"CN/C(=N\C#N)NCc1c(C)cc(C)c(CN/C(=N/C#N)NC)c1C [Example 2, 1,3-di[(2-cyano-3-methylguanidino)methyl]-2,4,6-trimethylbenzene]"
14,142 to 144 °C,"CC(C)(SC(=N)N)c1cccc(C(C)(C)SC(=N)N)c1 (as salt: hydrobromid) [Example 6, 2-{1-[3-(1-carbamimidoylsulfanyl-1-methylethyl)phenyl]-1-methylethyl}-isothiourea dihydrobromide]"
15,> 260 °C,"Cc1c(C)c(CSC(=N)N)c(C)c(CSC(=N)N)c1C (as salt: hydrochloride) [Example 3.5, (2,4,5,6-tetramethyl-1,3-phenylene)bis(methylene)dicarbamimidothioate dihydrochloride]"
16,237 to 238 °C,"CCOC(=O)c1cc(C(=O)OCC)c(CSC(=N)N)cc1CSC(=N)N (as salt: hydrobromid) [Example 3.4, diethyl 4,6-bis(carbamimidoylthiomethyl)isophthalate dihydrobromide]"
17,185 to 187 °C,"Cc1nc(C)c(CSC(=N)N)c(C)c1CSC(=N)N (as salt: hydrochloride) [Example 8, (2,4,6-trimethylpyridine-3,5-diyl)bis(methylene)dicarbamimidothioate dihydrochloride]"
18,> 250 °C,"Cc1cc(C)c(CNC(=N)N)c(C)c1CNC(=N)N (as salt: toluenesulfonate) [Example 1, N-(3-guanidinomethyl-2,4,6-trimethylbenzyl)guanidine, bis(p-toluenesulfonate)]"
19,230 to 233 °C,"N=C(N)SCc1cccc2cccc(CSC(=N)N)c12 (as salt: hydrobromid) [Example 3.13, naphthalene-1,8-diylbis(methylene)dicarbamimidothioate dihydrobromide]"
20,208 to 210 °C,"N=C(N)SCc1c(Cl)c(Cl)c(Cl)c(CSC(=N)N)c1Cl (as salt: hydrochloride) [Example 3.6, (2,4,5,6-tetrachloro-1,3-phenylene)bis(methylene)dicarbamimidothioate dihydrochloride]"
21,236 to 239 °C,"COc1c(CSC(=N)N)cc(C)cc1CSC(=N)N (as salt: hydrobromid) [Example 3.18, (2-methoxy-5-methyl-1,3-phenylene)bis(methylene)dicarbamimidothioate dihydrobromide]"
